Patent US20230026616A1, “PYRIMIDOIMIDAZOLE COMPOUNDS USED AS DNA-PK INHIBITORS” (MEDSHINE DISCOVERY INC., priority 2019, published 2023)
Like-named read-outs stand apart in the source and are kept apart here. Marks after values point to notes of the source that are not given here. One block for each molecule: values may come before it.

Columns and labels:
Human DNA-PK = target: T1, Human DNA-PK (Homo sapiens, UniProt P78527); experiment: DNA-dependent protein kinase (DNA-PK) inhibitory activity screening (Eurofins, HTRF); format: biochemical; conditions: ATP: 10 μM; read-out: DNA-PK kinase inhibition IC50
T1 construct: purchased Eurofins (Eurofins Pharma Discovery Service)
Description: Experimental Embodiment 1: DNA-Dependent Protein Kinase (DNA-PK) Inhibitory Activity Screening Experiment
This experiment was tested in the Eurofins
Human DNA-PK; Mg/ATP; GST-cMyc-p53; EDTA; Ser15 antibody; ATP: 10 μM.
Experimental Method (Eurofins Pharma Discovery Service):
DNA-PK (h) was incubated in assay buffer containing 50 nM GST-cMyc-p53 and Mg/ATP (according to the required concentration). The reaction was initiated by adding Mg/ATP mixture. After 30 minutes of incubation at room temperature, the reaction was stopped by adding a stop solution containing EDTA. Finally, detection buffer (containing labeled anti-GST monoclonal antibody and europium-labeled anti-Ser15 antibody against phosphorylated p53) was added. The plate was then read in time-resolved fluorescence mode, and the homogeneous time-resolved fluorescence (HTRF) signal was determined according to the formula HTRF=10000×(Em665 nm/Em620 nm).

[1] = system: human non-small cell lung cancer NCI-H1703 cell subcutaneous xenograft tumor; experiment: In vivo pharmacodynamics, NCI-H1703 subcutaneous xenograft tumor model; design: species or system BALB/c nude mice; conditions: for Tumor volume (Day 0): Day 0 (baseline), Mean ± SEM; for Tumor volume (Day 21): Day 21, Mean ± SEM; for T/Cweight: day 21; for Tumor weight (PG-D21): day 21, Mean ± SEM
Description: Experimental purpose: To study the in vivo pharmacodynamics of the test compounds in BALB/c nude mice model with human non-small cell lung cancer NCI-H1703 cell subcutaneous xenograft tumor
Experimental animals: Female BALB/c nude mice, 6-8 weeks old, weighing 18-22 grams; supplier: Shanghai Sippe-Bk Lab Animal Co., Ltd.
Human non-small cell lung cancer NCI-H1703 cells were cultured in vitro in RPMI1640 medium with 10% fetal bovine serum, 100 U/mL penicillin and 100 μg/mL streptomycin at 37° C. in a 5% CO2 incubator. Conventional digestion with trypsin-EDTA was performed twice a week for passage. When the cell saturation was 80%-90% and the number reached the requirement, the cells were collected, counted, and seeded.
0.2 mL (5×10^6 cells) NCI-H1703 cells (added with matrigel, volume ratio of 1:1) were subcutaneously inoculated into the right back of each mouse, and the group administration started when the average tumor volume reached about 130 mm^3.
Compound 5 was prepared into 3 mg/mL, 6 mg/mL, 9 mg/mL suspension solutions, and compound 17 was prepared into 9 mg/mL suspensions, and the solvent was 0.5% HPMC+1% Tween 80.
Tumor diameters were measured with vernier calipers twice a week. The calculation formula of tumor volume is: V=0.5a×b^2, wherein a and b represent the long and short diameters of the tumor, respectively.
The antitumor efficacy of the compounds was evaluated by TGI (%) or relative tumor proliferation rate T/C (%). Relative tumor proliferation rate T/C (%)=TRTV/CRTV×100% (TRTV: means RTV in the treatment group; CRTV: means RTV in the negative control group). The relative tumor volume (RTV) was calculated according to the results of tumor measurement. The calculation formula is RTV=Vt/V0, wherein V0 is the tumor volume measured at the time of group administration (i.e., day 0), and Vt is the tumor volume at one measurement. Data of the same day was taken for TRTV and CRTV.
TGI (%), reflecting tumor growth inhibition rate. TGI (%)=[1−(average tumor volume at the end of administration of a certain treatment group-average tumor volume at the beginning of administration of this treatment group)/(average tumor volume at the end of treatment in the solvent control group-average volume at the beginning of treatment in the solvent control group tumor volume)]×100%. After the experiment, the tumor weight was detected, and the T/weight percentage was calculated. T weight and C weight represent the tumor weight of the administration group and the solvent control group, respectively.
Statistical analysis was performed using SPSS software based on RTV data at the end of the experiment. […] T-test was used to analyze the comparison between two groups, and one-way ANOVA was used to analyze the comparison between three or more groups. If the variance was homogeneous (F value had no significant difference), Tukey's method was used for analysis. If the variance was not homogeneous (F value had significant difference), the Games-Howell method was used to test. p<0.05 was considered a significant difference.

[2] = Pharmacokinetic and brain exposure evaluation in rats; format: in vivo, SD male rats; conditions: for Vd: read-out: Vdss
Source text: IV: intravenous injection; PO: oral; C0: instantaneous […] concentration after intravenous injection; Cmax: highest plasma concentration after administration; Tmax: time required to reach peak of drug concentration after administration; T1/2: time required for the plasma drug concentration to decrease by half, Vdss: apparent volume of distribution, refers to the proportional constant of the drug dose in vivo and the blood drug concentration when the drug reaches a dynamic equilibrium in vivo. Cl: clearance rate, refers to the […] cleared from the body per unit time; Tlast: time at the last detection point; AUC0-last: area under the drug-time curve, refers to the area covered by the plasma concentration curve and the time axis; F: a measure of the speed and degree of drug absorption into the blood circulation, which is an important indicator for evaluating the degree of drug absorption.
Test compounds were mixed with 10% dimethyl sulfoxide/50% polyethylene glycol 200/40% water, vortexed and sonicated to prepare a nearly clear solution of 0.5 mg/mL (compound 5) or 1 mg/mL (compound 17), then filtered through a microporous membrane for next step. SD male rats were selected and administered intravenously with the candidate compound solution at a dose of 1 mg/kg (compound 5) or 2 mg/kg (compound 17). Test compounds were mixed with 10% dimethyl sulfoxide/50% polyethylene glycol 200/40% water, vortexed and sonicated to prepare a homogeneous suspension of 4 mg/mL (compound 5) or a nearly clear solution of 1 mg/mL (compound 17). SD male rats were selected and orally administered with the candidate compound solution at a dose of 40 mg/kg (compound 5) or 10 mg/kg (compound 17). Whole blood, cerebrospinal fluid, brain tissue were collected for a certain period of time and plasma was prepared, and the drug concentration was detected by LC-MS/MS method, and the pharmacokinetic parameters were calculated by Phoenix WinNonlin software (Pharsight, USA).

[3] = male, SD, 1 mg/kg, rat plasma, IV 1 mpk
[4] = male, SD, 40 mg/kg, rat, PO 40 mpk, Cerebrospinal fluid
[5] = male, SD, 40 mg/kg, rat, PO 40 mpk, Plasma
[6] = male, SD, 2 mg/kg, rat plasma, IV 2 mpk
[7] = male, SD, 10 mg/kg, rat plasma, PO 10 mpk

IC50 (Human DNA-PK): 1000 pM | AUC(0-t) [2, 3]: 2.38 µM·h | C0 [2, 3]: 3.04 µM | clearance [2, 3]: 17 mL/min/kg | half-life [2, 3]: 1.45 h | Vd [2, 3]: 1.41 L/kg | Tmax ([2]; male, SD, 40 mg/kg, rat, PO 40 mpk, Brain tissue): 4 h | AUC(0-t) [2, 4]: 7.74 µM·h | Tmax [2, 4]: 2 h | Cmax ([2]; male, SD, 40 mg/kg, rat, PO 40 mpk, Cerebrospinal fluid, read-out: Cmax): 1.26 µM | AUC(0-t) [2, 5]: 59.9 µM·h | Tmax [2, 5]: 2 h | Cmax ([2]; male, SD, 40 mg/kg, rat, PO 40 mpk, Plasma, read-out: Cmax): 10.2 µM | Tlast ([2]; rat plasma, IV 1 mpk): 8 h | AUC0-last ([2]; rat, PO 40 mpk, Brain tissue): 6369^b h*nmol/kg | Cmax ([2]; rat, PO 40 mpk, Brain tissue): 1019^a nmol/kg | Tlast ([2]; rat, PO 40 mpk, Brain tissue): 8 h | Tlast ([2]; rat, PO 40 mpk, Cerebrospinal fluid): 8 h | Tlast ([2]; rat, PO 40 mpk, Plasma): 8 h
Compound: Cc1cc2ncnn2cc1Nc1ncc2c(n1)n(N1CC3CCC(C1)O3)c(=O)n2C [Compound 5]
Tumor volume (Day 0) ([1]; 30 mg/kg twice a day): 131 ± 10 mm^3 | RTV (Day 21) ([1]; 30 mg/kg twice a day): 7.57 ± 0.53 | T/C (%) (Day 21) ([1]; 30 mg/kg twice a day): 79.3% | TGI (%) (Day 21) ([1]; 30 mg/kg twice a day): 20.6% | Tumor volume (Day 21) ([1]; 30 mg/kg twice a day): 979 ± 86 mm^3 | tumor inhibitory effect compared with the blank control (in words) ([1]; 30 mg/kg, administered twice a day): certain tumor inhibitory effect | T/Cweight ([1]; 30 mg/kg): 79.6% | Tumor weight (PG-D21) ([1]; 30 mg/kg): 1.031 ± 0.095 g | Tumor volume (Day 0) ([1]; 60 mg/kg twice a day): 131 ± 10 mm^3 | RTV (Day 21) ([1]; 60 mg/kg twice a day): 3.31 ± 0.51 | T/C (%) (Day 21) ([1]; 60 mg/kg twice a day): 34.7% | TGI (%) (Day 21) ([1]; 60 mg/kg twice a day): 72.3% | Tumor volume (Day 21) ([1]; 60 mg/kg twice a day): 427 ± 64 mm^3 | T/Cweight ([1]; 60 mg/kg): 36.0% | Tumor weight (PG-D21) ([1]; 60 mg/kg): 0.467 ± 0.078 g | tumor inhibitory effect compared with the blank control (in words) ([1]; 60 mg/kg, dosed twice a day): significant tumor inhibitory effect | Tumor volume (Day 0) ([1]; 90 mg/kg twice a day): 130 ± 10 mm^3 | RTV (Day 21) ([1]; 90 mg/kg twice a day): 2.64 ± 0.45 | T/C (%) (Day 21) ([1]; 90 mg/kg twice a day): 27.7% | TGI (%) (Day 21) ([1]; 90 mg/kg twice a day): 79.4% | Tumor volume (Day 21) ([1]; 90 mg/kg twice a day): 351 ± 64 mm^3 | T/Cweight ([1]; 90 mg/kg): 29.2% | Tumor weight (PG-D21) ([1]; 90 mg/kg): 0.379 ± 0.069 g | tumor inhibitory effect compared with the blank control (in words) ([1]; 90 mg/kg, dosed twice a day): significant tumor inhibitory effect | dose dependence of the therapeutic effect ([1]; 30, 60, 90 mg/kg twice a day): dose-dependent

IC50 (Human DNA-PK): 500 pM | AUC(0-t) [2, 6]: 4.86 µM·h | C0 [2, 6]: 5.3 µM | clearance [2, 6]: 16.9 mL/min/kg | half-life [2, 6]: 1.16 h | Vd [2, 6]: 1.4 L/kg | AUC(0-t) [2, 7]: 32.5 µM·h | Tmax [2, 7]: 2 h | half-life [2, 7]: 2.29 h | Cmax ([2]; male, SD, 10 mg/kg, rat plasma, PO 10 mpk, read-out: Cmax): 6.25 µM | Tlast ([2]; rat plasma, IV 2 mpk): 8 h | Tlast ([2]; rat plasma, PO 10 mpk): 8 h
Compound: Cc1cc2nncn2cc1Nc1ncc2c(n1)n(N1CC3CCC(C1)O3)c(=O)n2C [Compound 17]
Tumor volume (Day 0) ([1]; 90 mg/kg twice a day): 130 ± 13 mm^3 | RTV (Day 21) ([1]; 90 mg/kg twice a day): 3.19 ± 0.46 | T/C (%) (Day 21) ([1]; 90 mg/kg twice a day): 33.4% | TGI (%) (Day 21) ([1]; 90 mg/kg twice a day): 71.6% | Tumor volume (Day 21) ([1]; 90 mg/kg twice a day): 435 ± 94 mm^3 | T/Cweight ([1]; 90 mg/kg): 35.9% | Tumor weight (PG-D21) ([1]; 90 mg/kg): 0.466 ± 0.103 g | tumor inhibitory effect compared with the blank control (in words) ([1]; 90 mg/kg, dosed twice a day): significant tumor inhibitory effect
